Measured values reported in US20230382889A1 (Volastra Therapeutics, Inc., priority 2022, published 2023).
Read-outs that look alike come from different tables or passages of the source.

What was measured:
NIH:OVCAR-3 cells = assay: Cell viability of KIF18a-sensitive cell lines, NIH:OVCAR-3 (Cell Titre-Glo, 7 days); assay type: cell-based; conditions: read-out: NIH:OVCAR3 IC50
Description: (§1) Cell lines were seeded as follows 24 hours before compound treatment: HCC15 (Korean Cell Line Bank) 600 cell/well, 95 μL of RPMI-1640 media supplemented with 100 units/mL penicillin, 100 units/mL streptomycin and 10% FBS; NIH:OVCAR-3 (ATCC), 1000 cell/well, 95 μL of RPMI-1640 media supplemented with 100 units/mL penicillin, 100 units/mL streptomycin, 0.01 mg/mL bovine insulin, and 20% FBS; JIMT-1 (Addexbio) 1000 cell/well, 95 μL of DMEM media supplemented with 100 units/mL penicillin, 100 units/mL streptomycin, and 10% FBS.
(§2) Test compounds were added to cells in a 20× dilution scheme by adding 5 μL of serially diluted compound to the plate, and the treated cells were incubated for an additional 7 days in a 37° C., 5% CO2 incubator. DMSO was used as the negative control (0% effect), and wells omitting cells were used as the positive control (100% effect). The cells were incubated for seven days, and cell viability determined via the Promega Cell Titre-Glo® Assay kit. Luminescence units were converted to ATP concentrations via an ATP standard curve (10 point, 2-fold dilution from 5 uM). % Inhibition was calculated for each well as: ([max−min]−[test−min])/[max−min]. IC50 values were calculated from concentration vs. % Inhibition data via a four-parameter variable slope model.

HCC15 cells = assay: Cell viability of KIF18a-sensitive cell lines, HCC15 (Cell Titre-Glo, 7 days); assay type: cell-based; conditions: read-out: HCC15 IC50
Description: as §1, §2

JIMT-1 cells = assay: Cell viability of KIF18a-sensitive cell lines, JIMT-1 (Cell Titre-Glo, 7 days); assay type: cell-based; conditions: read-out: JIMT-1 IC50
Description: as §1, §2

hKIF18A (1-374) = hKIF18A (1-374) (Homo sapiens (Human), UniProt Q8NI77); assay: Inhibition of KIF18A microtubule-dependent ATPase activity (ADP-Glo); assay type: biochemical; conditions: 4 nM hKIF18A (1-374)
hKIF18A (1-374), sequence (Q8NI77 1-374): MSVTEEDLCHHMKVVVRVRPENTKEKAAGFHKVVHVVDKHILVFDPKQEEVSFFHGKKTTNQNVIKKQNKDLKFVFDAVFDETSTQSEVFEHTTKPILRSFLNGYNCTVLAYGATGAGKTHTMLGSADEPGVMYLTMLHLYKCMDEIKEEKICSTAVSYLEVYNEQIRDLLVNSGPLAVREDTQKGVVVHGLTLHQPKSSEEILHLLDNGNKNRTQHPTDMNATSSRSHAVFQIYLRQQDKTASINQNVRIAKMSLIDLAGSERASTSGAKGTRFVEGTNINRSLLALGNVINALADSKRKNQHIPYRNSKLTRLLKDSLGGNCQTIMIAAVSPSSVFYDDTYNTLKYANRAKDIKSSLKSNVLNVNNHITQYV
Summary of the method: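 Reaction was started with pre-formed microtubules and ATP (0.2 mg/mL and 2.0 mM in the added mix) and run 60 min at 28 °C. ADP was read by ADP-Glo luminescence, and IC50 came from a four-parameter fit of % inhibition.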

[1] = biological target: KIF18a-microtubule complex (Homo sapiens (Human), UniProt Q8NI77); assay: Binding kinetics to KIF18a-microtubule complex (global progress curve analysis); conditions: for kon (on-rate from binding kinetics assay) / koff: KIF18A 0.25 nM, up to 24 hr; for koff: read-out: koff (off-rate from binding kinetics assay) (converted); for Ki: koff/kon, read-out: KI (determined from binding kinetic assay koff/kon)
KIF18a-microtubule complex, sequence (Q8NI77 1-374, one chain of several): as the sequence (Q8NI77 1-374) above
Description: Compound binding kinetics parameters (kon and koff) were determined by the method of global progress curve analysis (GPCA). […] ADP product levels were determined by the Promega® ADP-Glo assay.

[2] = Homo sapiens, 168 h, JIMT-1, 7 days
[3] = Homo sapiens, OVCAR-3, 168 h, NIH:OVCAR3, 7 days

O=S(=O)(CCO)Nc1ccc(-n2cc(-c3cccc(C(O)C4CCCC4)n3)nn2)c(N2CCC3(CC2)CC3)c1 (single isomer, unassigned) [Compound 90a]
IC50 (NIH:OVCAR-3 cells; NIH:OVCAR3, 7 days): 14 nM
IC50 (HCC15 cells; HCC15, 7 days): 7.4 nM
IC50 (JIMT-1 cells; JIMT-1, 7 days): 11 nM
IC50 (hKIF18A (1-374)): 5.2 nM

O=S(=O)(CCO)Nc1ccc(-n2cc(-c3cccc(C(O)C4CCCC4)n3)nn2)c(N2CCC3(CC2)CC3)c1 (single isomer, unassigned) [Compound 90b]
IC50 (NIH:OVCAR-3 cells; NIH:OVCAR3, 7 days): 21 nM
IC50 (HCC15 cells; HCC15, 7 days): 13 nM
IC50 (JIMT-1 cells; JIMT-1, 7 days): 20 nM
IC50 (hKIF18A (1-374)): 5.6 nM

Cc1cc(NC(=O)c2ccc(NS(=O)(=O)CCO)cc2N2CCC3(CC2)CC3)nc(N2CCC(F)(F)CC2)n1 [AMG650, 2-(6-azaspiro[2.5]octan-6-yl)-N-[2-(4,4-difluoropiperidin-1-yl)-6-methylpyrimidin-4-yl]-4-(2-hydroxyethanesulfonamido)benzamide, reference compound]
IC50 (NIH:OVCAR-3 cells; Homo sapiens, OVCAR-3, 168 h): 100 nM
IC50 (HCC15 cells; HCC15, 168 h): 66 nM
IC50 (JIMT-1 cells; Homo sapiens, JIMT-1, 168 h): 130 nM

CS(=O)(=O)Nc1ccc(-c2nnc(-c3cccc(N4CCOCC4)n3)[nH]2)c(N2CCC3(CC2)CC3)c1 [Compound 2, N-(4-(5-(6-morpholinopyridin-2-yl)-4H-1,2,4-triazol-3-yl)-3-(6-azaspiro[2.5]octan-6-yl)phenyl)methanesulfonamide]
IC50 (HCC15 cells; 168 h, HCC15, 7 days): 130 nM
IC50 (JIMT-1 cells; [2]): 480 nM
kon (on-rate from binding kinetics assay) [1]: 3890 M⁻¹ s⁻¹
koff [1]: 3.61e-05 s⁻¹
Ki [1]: 8.9 nM
disc. t1/2 (dissociation half-life ln(2)/koff) [1]: 5.5 h
IC50 (hKIF18A (1-374)): 14 nM

CS(=O)(=O)Nc1ccc(-c2nnc(-c3cccc(N4CCC(F)(F)CC4)n3)[nH]2)c(N2CCC3(CC2)CC3)c1 [Compound 5, N-(4-(5-(6-(4,4-difluoropiperidin-1-yl)pyridin-2-yl)-1H-1,2,4-triazol-3-yl)-3-(6-azaspiro[2.5]octan-6-yl)phenyl)methanesulfonamide]
kon (on-rate from binding kinetics assay) [1]: 16900 M⁻¹ s⁻¹
koff [1]: 2.53e-05 s⁻¹
Ki [1]: 1.5 nM
disc. t1/2 (dissociation half-life ln(2)/koff) [1]: 7.6 h
IC50 (hKIF18A (1-374)): 6.6 nM

CS(=O)(=O)Nc1ccc(-n2cc(-c3cccc(S(=O)(=O)N4CC(F)(F)C4)c3)nn2)c(N2CCC3(CC2)CC3)c1 [Compound 13, N-(4-(4-(3-((3,3-difluoroazetidin-1-yl)sulfonyl)phenyl)-1H-1,2,3-triazol-1-yl)-3-(6-azaspiro[2.5]octan-6-yl)phenyl)methanesulfonamide]
IC50 (NIH:OVCAR-3 cells; [3]): 4.5 nM
IC50 (HCC15 cells; 168 h, HCC15, 7 days): 3 nM
IC50 (JIMT-1 cells; [2]): 4.7 nM
IC50 (hKIF18A (1-374)): 7.2 nM

CS(=O)(=O)Nc1ccc(-c2cn(-c3cccc(N4CCC(F)(F)CC4)n3)nn2)c(N2CCC3(CC2)CC3)c1 [Compound 29, N-(4-(1-(6-(4,4-difluoropiperidin-1-yl)pyridin-2-yl)-1H-1,2,3-triazol-4-yl)-3-(6-azaspiro[2.5]octan-6-yl)phenyl)methanesulfonamide]
IC50 (NIH:OVCAR-3 cells; [3]): 21 nM
IC50 (HCC15 cells; 168 h, HCC15, 7 days): 25 nM
IC50 (JIMT-1 cells; [2]): 23 nM
IC50 (hKIF18A (1-374)): 18 nM

Cc1cc(-c2cn(-c3ccc(NS(=O)(=O)CCO)cc3N3CCCCC3)nn2)nc(N2CC(F)(F)C2)c1 [Compound 70, N-(4-(4-(6-(3,3-difluoroazetidin-1-yl)-4-methylpyridin-2-yl)-1H-1,2,3-triazol-1-yl)-3-(piperidin-1-yl)phenyl)-2-hydroxyethane-1-sulfonamide]
kon (on-rate from binding kinetics assay) [1]: 2500 M⁻¹ s⁻¹
koff [1]: 3.61e-05 s⁻¹
Ki [1]: 15 nM
disc. t1/2 (dissociation half-life ln(2)/koff) [1]: 5.4 h
IC50 (hKIF18A (1-374)): 27 nM

Cc1cc(-c2cn(-c3ccc(NS(=O)(=O)CCO)cc3N3CCC4(CC3)CC4)nn2)nc(N2CCC(F)(F)CC2)c1 [Compound 72, N-(4-(4-(6-(4,4-difluoropiperidin-1-yl)-4-methylpyridin-2-yl)-1H-1,2,3-triazol-1-yl)-3-(6-azaspiro[2.5]octan-6-yl)phenyl)-2-hydroxyethane-1-sulfonamide]
IC50 (NIH:OVCAR-3 cells; [3]): 25 nM
IC50 (HCC15 cells; 168 h, HCC15, 7 days): 16 nM
IC50 (JIMT-1 cells; [2]): 24 nM

O=S(=O)(Nc1ccc(-n2cc(-c3ccc(F)c(N4CCC(F)(F)CC4)n3)nn2)c(N2CCCCC2)c1)C1(CO)CC1 [Compound 157, N-(4-(4-(6-(4,4-difluoropiperidin-1-yl)-5-fluoropyridin-2-yl)-1H-1,2,3-triazol-1-yl)-3-(piperidin-1-yl)phenyl)-1-(hydroxymethyl)cyclopropane-1-sulfonamide]
IC50 (hKIF18A (1-374)): 21 nM

O=C(O)c1cc(-c2cn(-c3ccc(NS(=O)(=O)CCO)cc3N3CCC4(CC3)CC4)nn2)nc(N2CCC(F)(F)CC2)n1 [Compound 158, 2-(4,4-difluoropiperidin-1-yl)-6-(1-(4-((2-hydroxyethyl)sulfonamido)-2-(6-azaspiro[2.5]octan-6-yl)phenyl)-1H-1,2,3-triazol-4-yl)pyrimidine-4-carboxylic acid]
IC50 (hKIF18A (1-374)): 3.8 nM

O=S(=O)(CCO)Nc1ccc(-n2cc(-c3nc(C4=CCC(F)(F)CC4)ccc3F)nn2)c(N2CCC3(CC2)CC3)c1 [Compound 159, N-(4-(4-(6-(4,4-difluorocyclohex-1-en-1-yl)-3-fluoropyridin-2-yl)-1H-1,2,3-triazol-1-yl)-3-(6-azaspiro[2.5]octan-6-yl)phenyl)-2-hydroxyethane-1-sulfonamide]
IC50 (hKIF18A (1-374)): 14 nM

O=S(=O)(CCO)Nc1ccc(-n2cc(-c3cc(CO)nc(N4CCC(F)(F)CC4)n3)nn2)c(N2CCC3(CC2)CC3)c1 [Compound 160, N-(4-(4-(2-(4,4-difluoropiperidin-1-yl)-6-(hydroxymethyl)pyrimidin-4-yl)-1H-1,2,3-triazol-1-yl)-3-(6-azaspiro[2.5]octan-6-yl)phenyl)-2-hydroxyethane-1-sulfonamide]
IC50 (hKIF18A (1-374)): 4.4 nM

Cc1ncc(-c2cn(-c3ccc(NS(=O)(=O)CCO)cc3N3CCC4(CC3)CC4)nn2)nc1C1=CCCC1 [Compound 161, N-(4-(4-(6-(cyclopent-1-en-1-yl)-5-methylpyrazin-2-yl)-1H-1,2,3-triazol-1-yl)-3-(6-azaspiro[2.5]octan-6-yl)phenyl)-2-hydroxyethane-1-sulfonamide]
IC50 (hKIF18A (1-374)): 63 nM

O=S(=O)(CCO)Nc1ccc(-n2cc(-c3ccc(F)c(C4=CCC(F)(F)CC4)n3)nn2)c(N2CCC3(CC2)CC3)c1 [Compound 162, N-(4-(4-(6-(4,4-difluorocyclohex-1-en-1-yl)-5-fluoropyridin-2-yl)-1H-1,2,3-triazol-1-yl)-3-(6-azaspiro[2.5]octan-6-yl)phenyl)-2-hydroxyethane-1-sulfonamide]
IC50 (hKIF18A (1-374)): 20 nM

CS(=O)(=O)Nc1ccc(-c2nc(-c3cccc(N4CCOCC4)n3)no2)c(N2CCC3(CC2)CC3)c1 [Compound 163, N-(4-(3-(6-morpholinopyridin-2-yl)-1,2,4-oxadiazol-5-yl)-3-(6-azaspiro[2.5]octan-6-yl)phenyl)methanesulfonamide]
IC50 (hKIF18A (1-374)): 3600 nM

CS(=O)(=O)Nc1ccc(-c2noc(-c3cccc(N4CCOCC4)n3)n2)c(N2CCC3(CC2)CC3)c1 [Compound 164, N-(4-(5-(6-morpholinopyridin-2-yl)-1,2,4-oxadiazol-3-yl)-3-(6-azaspiro[2.5]octan-6-yl)phenyl)methanesulfonamide]
IC50 (hKIF18A (1-374)): > 30000 nM

CS(=O)(=O)Nc1ccc(-n2cc(-c3cccc(N4CCC(F)(F)CC4)n3)nn2)c(N2CC3CC3C2)c1 (stereo not drawn) [Compound 165, N-(3-(3-azabicyclo[3.1.0]hexan-3-yl)-4-(4-(6-(4,4-difluoropiperidin-1-yl)pyridin-2-yl)-1H-1,2,3-triazol-1-yl)phenyl)methanesulfonamide]
IC50 (hKIF18A (1-374)): 283 nM

O=S(=O)(CCO)Nc1ccc(-c2cn(-c3cnn(C4CCC(F)(F)CC4)c3)nn2)c(N2CCC3(CC2)CC3)c1 [Compound 166, N-(4-(1-(1-(4,4-difluorocyclohexyl)-1H-pyrazol-4-yl)-1H-1,2,3-triazol-4-yl)-3-(6-azaspiro[2.5]octan-6-yl)phenyl)-2-hydroxyethane-1-sulfonamide]
IC50 (hKIF18A (1-374)): 2800 nM

N-(4-(4-(2-((3S,4R)-3,4-difluoropyrrolidin-1-yl)-6-methylpyrimidin-4-yl)-1H-1,2,3-triazol-1-yl)-3-(6-azaspiro[2.5]octan-6-yl)phenyl)-2-hydroxyethane-1-sulfonamide [Compound 107]
IC50 (hKIF18A (1-374)): 16 nM

N-(4-(4-(2-(cyclopentyloxy)-6-methylpyrimidin-4-yl)-1H-1,2,3-triazol-1-yl)-3-(6-azaspiro[2.5]octan-6-yl)phenyl)-2-hydroxyethane-1-sulfonamide [Compound 109]
IC50 (hKIF18A (1-374)): 8.8 nM
